Assay results published in PubChem BioAssay AID179 (DTP/NCI, 2004).
Activity calls are given as the source filed them.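 The calls were made as follows: active = compounds giving half or more protection of infected cells from virus-caused growth loss, again on retest; inactive = the rest.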

Tested on: CEM cells HIV-1 protection, formazan growth assay
Experiment: NCI AIDS Antiviral Assay
Conditions: for IC50: measured here: growth of uninfected CEM cells
How it was run: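 Human CEM cells, uninfected and HIV-1-infected, exposed to five drug concentrations; growth measured by soluble formazan assay and scored as percent protection from infection, with protecting compounds retested.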

Row | SMILES | EC50 [µM] | IC50 [µM] | outcome
1 | O=C1OC(=O)C2=C1C(c1cccs1)C=C(c1cccnc1)N2c1ccncc1 (stereo not drawn) | > 200 | 9.77 | 
2 | O=C(O)c1cc(-c2ccccc2O)nc2ccccc12 | > 355 | 191 | 
3 | COc1c2cc(C(C)(C)C)cc1CSCc1cc(C(C)(C)C)cc(c1OC)CCCCC2 | > 200 | > 200 | 
4 | O=S(=O)(O)c1ccc(NNc2ccc(S(=O)(=O)O)cc2)cc1 |  |  | inactive
5 | Cc1csc2c1-n1cccc1C2=O | > 200 | 129 | 
6 | N#CC(C(=O)CCC(=O)Nc1ccc(Cl)c(Cl)c1)c1ccc(Cl)cc1 (stereo not drawn) | > 331 | > 331 | 
7 | CN(C)c1ccc(-c2nc(N)nc3c2CCCC3)cc1 | > 37.2 | > 37.2 | 
8 | CCOP(=O)(OCC)/C(C#N)=C/c1cccn1C | 46.8 | 537 | 
9 | O=C(Nc1ccccc1-c1nn(C(=S)Nc2ccccc2)c(=S)n(C(=S)Nc2ccccc2)c1=O)C(F)(F)F |  |  | inactive
10 | CN1CN(c2ccccc2)C2(CCN(CCCCCCF)CC2)C1=O | > 200 | 107 | 
11 | CCC[CH2][Sn]([Cl])([CH2]CCC)[CH2]CCC |  |  | inactive
12 | CCN(CC)C1Oc2cc3c(cc2C(c2ccc(OC)cc2)C1C)OCO3 (stereo not drawn) | > 200 | 24 | 
13 | COc1ccc2c(c1O)C(=O)C(CCC(=O)O)CC2 (stereo not drawn) |  |  | inactive
14 | Cn1cc([N+](=O)[O-])cc1C(=O)Nc1cc(C(=O)Nc2ccc(S(=O)(=O)O)c3cc(S(=O)(=O)O)ccc23)n(C)c1 | > 398 | 178 | 
15 | S=C1CC(c2ccccc2)Sc2ccc(Cl)cc2N1 (stereo not drawn) | > 200 | 34.7 | 
16 | CCOC(=O)C(=O)N=Nc1nc2c(O)c3ccccc3c(O)c2s1 | > 15.1 | 8.71 | 
17 | CC1C2C=CC1C(c1c3ccc(=O)c(O)c-3oc3c(O)c(O)ccc13)C2C(=O)O (stereo not drawn) | 2.04 | > 200 | 
18 | O=C(CCCNc1nc(-c2ccccc2)cs1)c1cccs1 | > 50.1 | > 50.1 | 
19 | COc1ccc(C2SCC(=O)N2c2ccc(-c3ccc(-n4c(-c5ccccc5)nc5ccccc5c4=O)cc3)cc2)cc1OC (stereo not drawn) | > 200 | 18.2 | 
20 | NCP(=O)(O)OCC(=O)O |  |  | inactive
21 | COC(=O)c1ccccc1C1CN=NC12Cc1ccc(C)cc1C2=O (stereo not drawn) | > 200 | 63.1 | 
22 | Cc1cccc(C)c1NC(=O)C(=O)C1C(=O)N(c2ccccc2)N=C1N (stereo not drawn) | > 708 | > 708 | 

Row | SMILES | EC50 [µM] | IC50 [µM] | outcome
23 | CC(=O)Oc1cccc2c1C(=O)C1CC(O)C(O)C3OC(C)(C)OC2(C)C13 (stereo not drawn) | > 468 | > 468 | 
24 | C=C[C@@]1(C)CC2CC[C@]3(C)C(C)=CC(=O)CC3[C@]2(C)CC1O (stereo partly drawn) | > 200 | 107 | 
25 | Sc1ccccc1C1N(Cc2ccc(Cl)cc2)CCCN1Cc1ccc(Cl)cc1 | > 100 | 5.75 | 
26 | C[C@@H](NC(=O)c1ccccc1SC(=O)NCCCCl)C(N)=O | 3.39 | 49 | 
27 | Cc1cc(C#N)c(Nc2ccccc2[N+](=O)[O-])s1 | > 200 | 42.7 | 
28 | COc1ccc(N=Nc2c(-c3ccccc3)nn(C(=O)CC(=O)Nc3ccccc3Cl)c2-c2ccccc2)cc1 | > 24.5 | 22.9 | 
29 | COc1cc2c(cc1O)CC[n+]1cc3c(OC)c(OC)ccc3cc1-2 | > 182 | > 182 | 
30 | Cn1cnc(N)c1S(N)(=O)=O | > 1410 | > 1410 | 
31 | Cc1c(C#N)c2nc(C(=O)c3ccc(Br)cc3)cc(-c3ccc(Br)cc3)n2c1C | > 50.1 | > 50.1 | 
32 | CCCCCCCCCCOC1C(C(C)OCCCN(C)C)OC2OC3(CCCCC3)OC21 (stereo not drawn) | > 200 | 10.5 | 
33 | COC(=O)c1nc(-c2ccc3c(n2)C(=O)C(N)=C(OC)C3=O)c(N)c(-c2ccc(OC)c(OC)c2O)c1C | > 10 | 1.66 | 
34 | Cn1ncc2c(N(N)CCO)nc(-c3ccc([N+](=O)[O-])o3)nc21 | > 200 | 10.7 | 
35 | C1CC2=C(C1)C1=S(S2)SC2=C1CCC2 |  |  | inactive
36 | CN(C(=O)C12C3C4C1C1C2C3C41C(=O)O)C(C)(C)C (stereo not drawn) |  |  | inactive
37 | Cc1ccc(C2=Nc3ccccc3SC(c3cccc([N+](=O)[O-])c3)C2)cc1 (stereo not drawn) | > 33.9 | 6.17 | 
38 | Cn1cc(S(=O)(=O)NC(=O)Nc2ccc(Cl)cc2)c(=O)c2ccc(Cl)cc21 | > 200 | 36.3 | 
39 | CCOC(=O)C1(Br)C(c2ccccc2)NC(=O)NC1(C)Br (stereo not drawn) | > 85.1 | > 85.1 | 
40 | Cc1nc(N)nc(N)c1N1CCN(Cc2ccccc2)CC1 | > 200 | 6.92 | 
41 | CC1=Nc2nc3ccccc3n2C(C)(C)C1 | > 174 | 112 | 
42 | Cc1nc(/C=C2\C(=O)C=Cc3ccccc32)c(O)o1 | > 102 | > 102 | 
43 | [CH3][Sn]([CH3])([CH3])[O]C(=O)C(O)c1ccccc1 (stereo not drawn) |  |  | inactive
44 | COc1ccc(C(C(N)=O)N2CCCC2)cc1 (stereo not drawn) | > 200 | > 200 | 

Row | SMILES | EC50 [µM] | IC50 [µM] | outcome
45 | COc1cc(Nc2nc3cc(C(F)(F)F)ccc3nc2C)cc(OC)c1OC | > 60.3 | 31.6 | 
46 | CC(=O)O[C@H]1CC[C@@]2(C)C(=CC[C@@H]3C2CC[C@@]2(C)C3CC[C@@H]2c2nc(-c3ccccc3)cs2)C1 (stereo partly drawn) | > 52.5 | > 52.5 | 
47 | COc1ccc2c3c([nH]c2c1[N+](=O)[O-])C(C)=NCC3 |  |  | inactive
48 | CC(=O)NNc1nc(C)c(C(/C=C/c2ccc(Cl)cc2)=N\NS(=O)(=O)c2ccc(C)cc2)s1 | > 2.88 | > 2.88 | 
49 | CC(=O)Nc1cc2c3c(c1)CCCN3CCC2 | > 200 | 39.8 | 
50 | CCOC(=O)c1ccc(CS(=O)(=O)c2ccccc2)cc1 | > 23.4 | > 23.4 | 
51 | CC(NNC(=O)c1ccncc1)c1ccc(Cl)c(Cl)c1 (stereo not drawn) | > 200 | 107 | 
52 | COc1ccc(/C(=N\N)C2=NNC3(CCCCC3)NN2)cc1 |  |  | inactive
53 | COc1cc(C2C(Cl)C(=O)N2NC(=O)c2ccc(N)cc2)cc(Br)c1O (stereo not drawn) | > 200 | 13.2 | 
54 | Cc1cc2c(cc1C)C(=O)/C(=N/Nc1ccc(F)cc1)CCO2 | > 200 | 178 | 
55 | O=C1OC2(CC1C1(O)C3CC4CC(C3)CC1C4)C1CC3CC(C1)CC2C3 (stereo not drawn) | > 100 | 38.9 | 
56 | c1ccc2sc(SCN3CCCCC3)nc2c1 | > 200 | 81.3 | 
57 | CC(=O)NNc1nc(C)c(C(=O)NNC(=O)C(=O)Nc2c([N+](=O)[O-])ccc(C)c2C)s1 | > 209 | 107 | 
58 | O=[N+]([O-])CC(SCc1ccccc1)c1ccc2c(c1)OCO2 (stereo not drawn) |  |  | inactive
59 | O=c1cc2cccccc-2o1 | > 603 | 295 | 
60 | O=C(c1ccccc1)C(c1ccccc1)C1(O)C(=O)Nc2c(Cl)ccc(Cl)c21 (stereo not drawn) | > 17.4 | > 17.4 | 
61 | O=C(Oc1ccc(N=Cc2ccc3c(c2)OCO3)cc1)Oc1ccc(N=Cc2ccc3c(c2)OCO3)cc1 |  |  | inactive
62 | O=C1Nc2n[nH]c(=S)n2NC12c1ccccc1-c1ccccc12 | > 200 | > 100 | 
63 | N#C/C(=C(\O)c1ccccc1)c1nc2ccccc2[nH]1 | > 69.2 | > 69.2 | 
64 | Oc1ccc2ccccc2c1OCc1nnc(CCCCCCCCc2nnc(COc3c(O)ccc4ccccc34)n2Nc2ccccc2)n1Nc1ccccc1 | > 2 | > 2 | 
65 | CC(=O)OCC1OC(NC(=S)N/N=C2\CC(c3ccccc3)Oc3ccccc32)C(OC(C)=O)C(OC(C)=O)C1OC(C)=O (stereo not drawn) |  |  | inactive
66 | O=c1[nH]c(N/N=C\C(O)C(O)C(O)C(O)CO)nc2ccccc12 (stereo not drawn) | > 200 | > 200 | 

Row | SMILES | EC50 [µM] | IC50 [µM] | outcome
67 | CCCCCCC(C)CCCCCCCCCCC(=O)O (stereo not drawn) |  |  | inactive
68 | CC1=C(c2ccc(C)cc2)NC(=S)C(C)C(c2ccc(C)cc2)=N1 (stereo not drawn) | > 200 | 97.7 | 
69 | O=C1CN2Cc3cc(N4CCOCC4)ccc3N=C2N1 | > 257 | 40.7 | 
70 | O=c1c2ccccc2c(=O)c2c1cc(Cl)c1[nH]c3c([nH]c12)c(Cl)cc1c(=O)c2ccccc2c(=O)c13 | > 7.41 | > 7.41 | 
71 | [Cu+2].[O-]/N=C/c1ccc(O)cc1[O-].[O-]/N=C/c1ccc(O)cc1[O-] | > 26.9 | 13.2 | 
72 | CCN(CC)CCOc1ccc(/C(C#N)=C/c2ccc(C(F)(F)F)cc2)cc1 | > 20 | 1.23 | 
73 | O=C(C#Cc1ccccc1)N1c2ccccc2CC1c1c[nH]c2ccccc12 (stereo not drawn) | > 20 | 8.32 | 
74 | Cc1ccccc1-n1c(N)c(-c2nc3ccccc3[nH]2)sc1=S | > 4.27 | > 4.27 | 
75 | COC(=O)/C(=N\N)C(C(=O)C(=O)Nc1cccc([N+](=O)[O-])c1)c1nc2ccc(C(=O)c3ccccc3)cc2[nH]c1=O (stereo not drawn) | > 64.6 | > 64.6 | 
76 | O=C(O)c1ccccc1NS(=O)(=O)c1ccc([N+](=O)[O-])cc1 |  |  | inactive
77 | OC1C2[C@@H](O)CCN2CC[C@H]1O (stereo partly drawn) | > 759 | > 759 | 
78 | CCOC1CCN(C(=O)c2ccccc2)O1 (stereo not drawn) | > 200 | > 200 | 
79 | O=C(NCCCCCCCCNC(=O)c1cc(-c2ccccc2)nc2ccccc12)c1cc(-c2ccccc2)nc2ccccc12 | > 200 | > 200 | 
80 | CCSc1[nH]c(Nc2nc(-c3ccccc3)n(-c3ccccc3)n2)c(C(N)=O)c1C(N)=O |  |  | inactive
81 | O=C1CC2SC(COCc3ccccc3)(CCN2Cc2ccccc2)C1 (stereo not drawn) |  | 41.7 | inactive
82 | CCC(C)C(NC(=O)C(CCCCN)NC(=O)CNC(=O)C(NC(=O)C(NC(=O)C(NC(=O)C(Cc1ccccc1)NC(=O)C(C)NC(=O)C(CCCNC(=N)N)NC(=O)CNC(=O)C1CCCN1C(=O)CNC(=O)C(CCCNC(=N)N)NC(=O)C(CCC(N)=O)NC(=O)C(NC(=O)C(CCCNC(=N)N)NC(=O)C(NC(=O)C(CO)NC(=O)C(CCCCN)NC(=O)C(CCCNC(=N)N)NC(=O)C(NC(=O)C(CC(N)=O)NC(=O)C(N)CC(N)=O)C(C)O)C(C)CC)C(C)CC)C(C)C)C(C)OC1OC(CO)C(O)C(O)C1NC(C)=O)C(C)CC)C(=O)NCC(N)=O (stereo not drawn) | 24.5 | 50.1 | 
83 | Cn1c(N)c(/C=C/C(=O)Oc2ccccc2)c(=O)n(C)c1=O |  |  | inactive
84 | CC(CO)CCNc1ncnc2c1ncn2CCC(=O)OC(C)(C)C (stereo not drawn) | > 200 | > 200 | 
85 | CC(C)=COS(=O)(=O)C(F)(F)F | > 200 | 110 | 
